Reference: patent US20230257355A1, “HYDROXAMIC ACID-CONTAINING COMPOUND, AND PREPARATION METHOD AND USE THEREOF” (CHINA PHARMACEUTICAL UNIVERSITY, priority 2020, published 2023)

Columns and labels:
ASM = target: T1, ASM (Homo sapiens, UniProt P17405); assay: Inhibition of compounds on ASM activity (cell protein extract, fluorescently-labeled substrate); type: biochemical; conditions: for IC50: protein extracted from cultivated cells, fluorescently-labeled substrate
T1 construct: A protein in cultivated cells was extracted, a buffer and a fluorescently-labeled reaction substrate were added; endogenous in cells
T1 sequence (P17405 47-631): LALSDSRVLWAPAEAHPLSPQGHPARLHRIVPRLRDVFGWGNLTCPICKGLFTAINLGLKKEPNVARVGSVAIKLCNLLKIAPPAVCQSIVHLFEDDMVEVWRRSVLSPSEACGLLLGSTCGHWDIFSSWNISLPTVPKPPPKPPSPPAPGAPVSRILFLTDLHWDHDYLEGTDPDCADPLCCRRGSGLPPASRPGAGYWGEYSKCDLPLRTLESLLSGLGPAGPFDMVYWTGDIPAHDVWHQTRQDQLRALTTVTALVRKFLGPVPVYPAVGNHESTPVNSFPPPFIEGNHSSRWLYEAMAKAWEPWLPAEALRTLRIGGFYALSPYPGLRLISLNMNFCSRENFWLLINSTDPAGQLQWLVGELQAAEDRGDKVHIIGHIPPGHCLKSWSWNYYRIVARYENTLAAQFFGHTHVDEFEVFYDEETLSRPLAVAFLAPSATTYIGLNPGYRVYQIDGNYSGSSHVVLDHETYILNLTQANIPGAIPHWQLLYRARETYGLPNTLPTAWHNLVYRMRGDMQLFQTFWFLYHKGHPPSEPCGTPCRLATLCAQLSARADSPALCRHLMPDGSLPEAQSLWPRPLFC
Method: ASM can hydrolyze sphingomyelin to produce ceramides in cells. For a specified amount of a fluorescently-labeled reaction substrate (Avanti Corporation, USA), different ASM activities catalyze the generation of a product at different amounts. Thus, an ASM activity level can be investigated by detecting a product content. The experiment design of the present disclosure is carried out according to the above principle.
A blank control group was set. After the reaction was completed, fluorescence analysis was performed, and finally an IC50 value of the compound was calculated.
A blank control group was set. After the reaction was completed, fluorescence analysis was performed.

[1] = tested on: ApoE-knockout mice AS model; assay: Anti-AS effect: aortic plaque area in ApoE-knockout mice on high-fat diet; type: in vivo
Method: The mice were randomly divided into 6 groups, with 5 mice in each group. The groups were intraperitoneally injected respectively with a blank solvent, a blank solvent, 12 mg/kg compound I-1, and 40 mg/kg compound I-1 once every day for 8 weeks. After the experiment was completed, the animals were sacrificed and main arteries were collected. The main arterial vessels were directly observed and photographed under a microscope. […] The collected arterial vessels were subjected to lipid staining with ORO and then photographed under a microscope, and image analysis was performed.

[2] = tested on: ApoE-knockout mice AS model; assay: Plasma lipid indexes in ApoE-knockout AS mice; type: in vivo; conditions: versus non-administration Control group
Method: The mice were randomly divided into 6 groups, with 5 mice in each group. The groups were intraperitoneally injected respectively with a blank solvent, a blank solvent, 12 mg/kg compound I-1, and 40 mg/kg compound I-1 once every day for 8 weeks. After the experiment was completed, the animals were sacrificed and main arteries were collected.

[3] = tested on: chronic depression rat model established by reserpine; assay: Sucrose preference test (SPT) in reserpine chronic depression rat model; type: in vivo; conditions: rats
Method: (§1) In the present disclosure, a chronic depression rat model was established by reserpine (reference: NeurotoxRes, 2014, doi: 10.1007/s12640-013-9454-8). Specific experimental steps were as follows: In a normal group, 8 rats were randomly selected and raised normally. Rats in the remaining groups each were injected intraperitoneally with reserpine at 0.2 mg/kg once every day for three days. Rats in the remaining groups each were intraperitoneally injected with the compound I-1 at different doses (3 mg/kg, 6 mg/kg, and 12 mg/kg), a positive drug amitriptyline (6 mg/kg), or no drug. Two weeks after the administration, the OFT was performed (reference: China Pharmacy, 2016, 27 (19): 2697-2699), and after the OFT was completed, the SPT was performed. After the OFT was completed, all rats were first trained to drink 10 g/L sucrose-containing water. That is, tap water was replaced with 10 g/L sucrose-containing water within the first 48 h, then the water and food were deprived for 20 h, and then 10 g/L sucrose-containing water was provided for drinking and the drinking amount within 24 h was calculated.

[4] = tested on: chronic depression rat model established by reserpine; assay: Open field test (OFT) in reserpine chronic depression rat model; type: in vivo; conditions: rats
Method: as §1, with “performed.” for “performed. After the OFT was completed, all rats were first trained to drink 10 g/L sucrose-containing water. That is, tap water was replaced with 10 g/L sucrose-containing water within the first 48 h, then the water and food were deprived for 20 h, and then 10 g/L sucrose-containing water was provided for drinking and the drinking amount within 24 h was calculated.”

[5] = i.p. 3, 6, 12 mg/kg, two weeks after administration

inhibition at 1 µM (ASM) [%]	inhibition at 10 µM (ASM) [%]	IC50 (ASM) [nM]	SMILES	other results
70	82		COc1ccc(COc2ccc(-n3cnc4ccc(C(=O)NO)cc43)cc2)cc1 [Compound I-12]	
		3680	O=C(NO)c1ccc2ncn(-c3ccc(OCc4ccc(C(F)(F)F)cc4)cc3)c2c1 [Compound I-3]	
8	83		N#Cc1ccc(COc2ccc(-n3cnc4ccc(C(=O)NO)cc43)cc2)cc1 [Compound I-11]	
69	88		COc1ccc(COc2ccc(-n3ccc4ccc(C(=O)NO)cc43)cc2)cc1 [II-2, 1-(4-((4-methoxybenzyl)oxy)phenyl)-N-hydroxy-1H-indole-6-carboxamide]	
		470	O=C(NO)c1ccc2ncn(-c3ccc(OCc4ccc(Cl)cc4)cc3)c2c1 [Compound I-1, 1-(4-((4-chlorobenzyl)oxy)phenyl)-N-hydroxy-1H-benzo[d]imidazole-6-carboxamide]	Plaque area of AS (ORO lipid staining) ([1]; 12 mg/kg i.p. once daily for 8 weeks): significantly reduce; Plaque area of AS (ORO lipid staining) ([1]; 40 mg/kg i.p. once daily for 8 weeks): significantly reduce; Aortic arch plaque area (direct microscopy) ([1]; i.p. once daily for 8 weeks, different doses (12 and 40 mg/kg)): significantly reduced; HDL in plasma [2]: no impact; LDL level in plasma [2]: significantly increased; Total TG in plasma [2]: no impact; Total cholesterol in plasma [2]: no impact; SPT effect versus positive control amitriptyline (6 mg/kg) ([3]; high-dose 12 mg/kg i.p.): slightly lower than that of the positive control drug amitriptyline; SPT effect versus model group ([3]; high-dose 12 mg/kg i.p., p < 0.01): significantly different from that of the model group; SPT uptake capacity for sucrose-containing water ([3]; i.p., 10 g/L sucrose water, drinking amount within 24 h): significantly restored; OFT behavioral indexes versus amitriptyline (6 mg/kg) ([4]; high-dose 12 mg/kg i.p.): comparable to that of rats in the amitriptyline control group; OFT frequency of grooming [4, 5]: significantly improved; OFT frequency of upright [4, 5]: significantly improved; OFT times passing the grid [4, 5]: significantly improved; OFT total time in center [4, 5]: significantly improved
20	50		O=C(NO)c1ccc2ncn(-c3ccc(OCc4ccc(F)cc4)cc3)c2c1 [Compound I-10]	

Further lines, the molecule ahead of its results:

SMILES	inhibition at 1 µM (ASM) [%]	inhibition at 10 µM (ASM) [%]	IC50 (ASM) [nM]	other results
O=C(NO)c1ccc2ncn(-c3ccc(OCc4cccc(C(F)(F)F)c4)cc3)c2c1 [Compound I-6]			1240	
O=C(NO)c1ccc2ccn(-c3ccc(OCc4ccc(C(F)(F)F)cc4)cc3)c2c1 [II-1, 1-(4-((4-trifluoromethylbenzyl)oxy)phenyl)-N-hydroxy-1H-indole-6-carboxamide]	74	91		
O=C(NO)c1ccc2ncn(-c3ccc(OCc4ccc(C(F)(F)F)cn4)cc3)c2c1 [Compound I-14]	24	76		
O=C(NO)c1ccc2ncn(-c3ccc(OCc4ccc(C(F)(F)F)cc4C(F)(F)F)cc3)c2c1 [Compound I-8]			1160	
O=C(NO)c1ccc2ncn(-c3ccc(OCc4ccccn4)cc3)c2c1 [Compound I-13]	14	22		
O=C(NO)c1ccc2ncn(-c3ccc(OCc4cc(C(F)(F)F)cc(C(F)(F)F)c4)cc3)c2c1 [Compound I-9]	80	93		
O=C(NO)c1ccc2ncn(-c3ccc(OCc4ccc(Cl)c(C(F)(F)F)c4)cc3)c2c1 [Compound I-7]			390	
O=C(NO)c1ccc2ncn(CCCOCc3ccc(C(F)(F)F)cc3)c2c1 [Compound I-5]			2780	
